One may read the IC50 as the concentration that gives 50% inhibition. Low readings indicate greater potency, high ones weaker potency.

Molecules are shown by their SMILES.

The results in this text go back to patent US20260199325A1, “NOVEL SUBSTITUTED PYRAZINE-CARBOXAMIDE-IMIDAZOPYRIDINE DERIVATIVES” (Boehringer Ingelheim International GmbH, priority 2022, published 2026).

In this assay the target is T1, human metabotropic Glutamate 4 receptor (Homo sapiens, UniProt Q14833).
T1 construct: expressed in transfected cells; host or cells: HEK293
T1 sequence (Q14833 33-912): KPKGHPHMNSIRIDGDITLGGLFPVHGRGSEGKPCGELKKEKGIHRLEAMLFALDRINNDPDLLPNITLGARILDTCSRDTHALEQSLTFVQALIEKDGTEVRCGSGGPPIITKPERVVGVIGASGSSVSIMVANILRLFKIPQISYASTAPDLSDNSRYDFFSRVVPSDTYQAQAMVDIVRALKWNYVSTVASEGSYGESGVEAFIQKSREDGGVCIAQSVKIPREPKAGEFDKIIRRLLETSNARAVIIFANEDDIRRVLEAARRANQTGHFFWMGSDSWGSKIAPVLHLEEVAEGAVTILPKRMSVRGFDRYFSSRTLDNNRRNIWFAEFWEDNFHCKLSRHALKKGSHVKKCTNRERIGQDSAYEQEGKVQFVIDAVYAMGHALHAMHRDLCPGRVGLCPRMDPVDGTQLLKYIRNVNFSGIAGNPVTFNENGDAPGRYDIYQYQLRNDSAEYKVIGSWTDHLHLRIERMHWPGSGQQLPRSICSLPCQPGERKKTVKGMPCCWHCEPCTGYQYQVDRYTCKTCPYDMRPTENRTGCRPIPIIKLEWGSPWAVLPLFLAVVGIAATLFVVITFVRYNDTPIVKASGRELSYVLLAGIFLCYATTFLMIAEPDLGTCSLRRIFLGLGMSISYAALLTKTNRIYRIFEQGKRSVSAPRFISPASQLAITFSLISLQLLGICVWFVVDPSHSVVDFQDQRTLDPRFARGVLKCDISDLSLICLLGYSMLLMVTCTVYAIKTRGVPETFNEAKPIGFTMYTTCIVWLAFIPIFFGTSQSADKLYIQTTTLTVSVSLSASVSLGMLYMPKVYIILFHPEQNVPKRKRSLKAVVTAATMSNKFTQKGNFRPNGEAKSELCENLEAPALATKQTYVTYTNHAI
In words: In vitro testing of mGluR4 potency (Assay A), cAMP HTRF in HEK293 cells. The class given is cell-based. The settings on record: Table 2; HEK293 cell overexpressing human mGluR4; 10 uM L-Glutamic acid, 1 uM forskolin. On the procedure: A. In Vitro Testing of mGluR4 Potency
The in vitro activity of the compounds according to the invention may be investigated as follows:
The HEK293 cell overexpressing the human metabotropic Glutamate 4 receptor were thawed at 37° C. and immediately diluted with cell culture medium. After centrifugation, the cell pellet is re-suspended in medium and then distributed from a stirred spinner flask into the wells of the assay plate. The plates are incubated for one hour at room temperature before they are incubated for 24 hours at 37° C./5% C02. After washing the cells in the plate three times with 80 uL HBSS/HEPES buffer (10 uL buffer remained in the wells after washing), 5 uL per well of compounds diluted in HBSS/HEPES buffer containing 0.2% BSA (final concentration: 0.1%) and 1 mM IBMX (final concentration: 0.5 mM) are added to the wells of the assay plate. Thereafter 5 uL per well of L-Glutamic acid (final concentration: 10 uM), forskolin (final concentration: 1 uM) and 1 mM IBMX (final concentration: 0.5 mM) dissolved in HBSS/HEPES buffer containing 0.2% BSA (final concentration: 0.1%) are added to the assay plate (final DMSO concentration: 1%). Several wells of the assay plate are used either for the positive and the negative controls or for the cAMP standard curve. The assay plate is incubated for 30 minutes at room temperature. Then 5 ul per well of Anti-cAMP-Antibody-d2 solution and 5 ul per well of cAMP-Europium Cryptate dilution are added to all wells of the plate and the plate is incubated another 60 minutes light protected at room temperature. The emission at 615 nm and 665 nm (Excitation wavelength: 320 nm) are measured on the EnVision™ reader (PerkinElmer). The ratio between the emission at 665 nm and 615 is calculated by the reader. The whole assay is performed in the dark or under green light.
The cAMP standard is prepared by diluting the cAMP stock solution with HBSS/Hepes buffer: 5 μl/well of the cAMP dilutions (in HBSS/Hepes buffer containing 1 mM IBMX and 0.2% BSA-final concentration: 0.5 mM IBMX and 0.1% BSA) are added to 10 ul/well HBSS/Hepes buffer plus 5 ul/well 4% DMSO in HBSS/Hepes containing 0.2% BSA (final DMSO concentration: 1%-like in the wells containing compounds) in the wells of the assay plate. The final cAMP concentrations in the assay plate were: 0, 0.17, 0.69, 2.78, 11.1, 44.5, 178, and 712 nM (two wells/cAMP concentration).
Each assay microtiter plate contained also wells with vehicle controls instead of compound as controls for L-Glutamic acid induced signal (negative control; 100% CTL; 10 uM L-Glutamic acid+1 uM forskolin+0.5 mM IBMX+1% DMSO) and wells with vehicle controls without L-Glutamic acid as controls for non-specific changes in signal (positive control; 0% CTL; 0 uM L-Glutamic acid+1 uM forskolin+0.5 mM IBMX+1% DMSO).
The analysis of the data is performed by the calculation the ratio between the emission at 665 nm and the emission at 615 nm (Em665/Em615 ratio). Thereafter the signals of the compounds are normalized using the positive and negative controls by the following formula:
PoC=100×((Signal Sample−Positive Control)/(Negative Control−Positive Control))
On the technique in general: Time-resolved FRET reads energy transfer from a long-lived donor to a nearby acceptor.
`CCn1c([C@@H](NC(=O)c2cnc(C(F)F)cn2)C2CC2)nc2cnc(C(F)(F)F)cc21` [Example 49, N-[(S)-cyclopropyl[1-ethyl-6-(trifluoromethyl)-1H-imidazo[4,5-c]pyridin-2-yl]methyl]-5-(difluoromethyl)pyrazine-2-carboxamide]: it took 0.053 µM to reach half-maximal inhibition (IC50). As to `Cc1cnc(C(=O)N[C@H](c2nc3cc(Cl)cnc3n2C(C)C)[C@@H]2CCCO2)cn1` [Example 41, N-[(R)-[6-chloro-3-(propan-2-yl)-3H-imidazo[4,5-b]pyridin-2-yl][(2S)-oxolan-2-yl]methyl]-5-methylpyrazine-2-carboxamide], the IC50 is 0.021 µM. Regarding `Cc1c(C#N)cnc2c1nc([C@@H](NC(=O)c1cnc(C(F)F)cn1)C1CC1)n2C(C)C` [Example 4, N-[(S)-[6-cyano-7-methyl-3-(propan-2-yl)-3H-imidazo[4,5-b]pyridin-2-yl](cyclopropyl)methyl]-5-(difluoromethyl)pyrazine-2-carboxamide], it took 0.002 µM to reach half-maximal inhibition (IC50).

Compound `Cc1cnc(C(=O)N[C@H](c2nc3cc(Cl)cnc3n2C(C)C)C2CC2)cn1` [Example 10, N-[(S)-[6-chloro-3-(propan-2-yl)-3H-imidazo[4,5-b]pyridin-2-yl](cyclopropyl)methyl]-5-methylpyrazine-2-carboxamide] yielded an IC50 of 0.004 µM.
